The target in experiment [1] is T1, Signal transducer and activator of transcription 1-alpha/beta (Homo sapiens) (UniProt P42224).
T1 sequence (whole entry): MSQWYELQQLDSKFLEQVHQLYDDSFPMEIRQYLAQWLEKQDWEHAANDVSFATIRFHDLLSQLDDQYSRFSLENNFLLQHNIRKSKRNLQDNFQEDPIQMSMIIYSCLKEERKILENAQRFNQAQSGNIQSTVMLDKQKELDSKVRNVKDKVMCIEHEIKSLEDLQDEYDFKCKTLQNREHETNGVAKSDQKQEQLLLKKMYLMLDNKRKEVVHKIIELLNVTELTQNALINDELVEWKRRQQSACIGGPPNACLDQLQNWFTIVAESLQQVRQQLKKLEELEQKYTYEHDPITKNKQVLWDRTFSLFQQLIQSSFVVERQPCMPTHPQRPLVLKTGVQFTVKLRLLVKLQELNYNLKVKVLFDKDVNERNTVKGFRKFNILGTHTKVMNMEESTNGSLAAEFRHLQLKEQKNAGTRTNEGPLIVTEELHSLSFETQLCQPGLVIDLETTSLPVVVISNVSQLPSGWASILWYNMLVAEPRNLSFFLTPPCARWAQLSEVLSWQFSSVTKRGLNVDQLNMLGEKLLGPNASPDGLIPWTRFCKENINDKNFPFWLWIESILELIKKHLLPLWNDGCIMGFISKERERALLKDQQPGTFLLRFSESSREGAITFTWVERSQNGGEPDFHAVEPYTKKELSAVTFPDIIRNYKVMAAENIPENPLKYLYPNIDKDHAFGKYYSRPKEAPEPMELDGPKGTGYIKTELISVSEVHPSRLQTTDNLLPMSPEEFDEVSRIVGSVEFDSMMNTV
Description: Inhibition of INFgamma-induced STAT1 activation in human […] cells assessed as reduction of STAT1-DNA binding activity at 50 uM preincubated for 30 mins followed by cytokine challenge measured after 60 mins by electrophoretic mobility shift assay. It is filed as cell-based.

Another experiment deals with INS-1E. In words: Inhibition of TNFalpha-induced NFkappaB activation in rat INS-1E cells assessed as reduction of NFkappaB-DNA binding activity at 25 uM preincubated for 30 mins followed by cytokine challenge measured after 60 mins by electrophoretic mobility shift assay. It is filed as cell-based.
Experiment [2] has as its target T2, Signal transducer and activator of transcription 1 (Rattus norvegicus) (UniProt Q6P6Q7).
T2 sequence (whole entry): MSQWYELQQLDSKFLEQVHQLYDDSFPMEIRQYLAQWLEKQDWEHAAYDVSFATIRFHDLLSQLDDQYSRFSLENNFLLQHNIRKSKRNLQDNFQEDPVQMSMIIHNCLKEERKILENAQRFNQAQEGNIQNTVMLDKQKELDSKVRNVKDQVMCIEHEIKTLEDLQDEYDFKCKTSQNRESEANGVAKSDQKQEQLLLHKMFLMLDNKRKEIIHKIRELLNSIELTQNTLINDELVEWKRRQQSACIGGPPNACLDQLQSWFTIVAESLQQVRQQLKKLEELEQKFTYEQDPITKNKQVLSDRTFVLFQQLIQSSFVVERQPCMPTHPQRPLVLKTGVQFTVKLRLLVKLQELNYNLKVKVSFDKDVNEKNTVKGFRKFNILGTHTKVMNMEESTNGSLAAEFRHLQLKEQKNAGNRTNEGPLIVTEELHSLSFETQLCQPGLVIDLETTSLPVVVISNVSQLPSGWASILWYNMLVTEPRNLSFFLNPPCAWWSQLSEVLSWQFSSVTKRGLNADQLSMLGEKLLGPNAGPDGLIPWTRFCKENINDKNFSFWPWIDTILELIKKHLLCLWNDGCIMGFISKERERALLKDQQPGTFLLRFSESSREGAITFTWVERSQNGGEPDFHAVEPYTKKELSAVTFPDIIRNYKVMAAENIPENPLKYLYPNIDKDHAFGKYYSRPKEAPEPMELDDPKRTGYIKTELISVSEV
In words: Inhibition of INFgamma-induced STAT1 activation in rat INS-1E cells assessed as reduction of STAT1-DNA binding activity at 25 uM preincubated for 30 mins followed by cytokine challenge measured after 60 mins by electrophoretic mobility shift assay. It is filed as cell-based.

Experiment [3] addresses T1, Signal transducer and activator of transcription 1-alpha/beta (Homo sapiens). Description: Inhibition of INFgamma-induced STAT1 activation in human […] cells assessed as reduction of STAT1-DNA binding activity preincubated for 30 mins followed by cytokine challenge measured after 60 mins by electrophoretic mobility shift assay. It is filed as cell-based. A general note: Mobility shift assays separate free from complexed probe on a gel.

Experiment [4] concerns the target T3, Signal transducer and activator of transcription 1-alpha/beta (Homo sapiens, UniProt P42224).
T3 sequence (P42224 whole entry): T1 sequence (whole entry)
In words: Binding affinity to STAT1 (unknown origin) by surface plasmon resonance assay.

Experiment [5] concerns MDA-MB-231. Description: Inhibition of TNFalpha-induced NFkappaB activation in human MDA-MB-231 cells assessed as reduction of NFkappaB-DNA binding activity at 50 uM preincubated for 30 mins followed by cytokine challenge measured after 60 mins by electrophoretic mobility shift assay. It is filed as cell-based.
Experiment [6] addresses T1, Signal transducer and activator of transcription 1-alpha/beta (Homo sapiens). In words: Inhibition of INFgamma-induced STAT1 activation in human […] cells assessed as reduction of STAT1-DNA binding activity at 25 uM preincubated for 30 mins followed by cytokine challenge measured after 60 mins by electrophoretic mobility shift assay. It is filed as cell-based.

The test system of experiment [7] is MDA-MB-231. In words: Inhibition of TNFalpha-induced NFkappaB activation in human MDA-MB-231 cells assessed as reduction of NFkappaB-DNA binding activity preincubated for 30 mins followed by cytokine challenge measured after 60 mins by electrophoretic mobility shift assay. It is filed as cell-based.
In experiment [8] the target is T2, Signal transducer and activator of transcription 1 (Rattus norvegicus). In words: Inhibition of INFgamma-induced STAT1 activation in rat INS-1E cells assessed as reduction of STAT1-DNA binding activity at 10 uM preincubated for 30 mins followed by cytokine challenge measured after 60 mins by electrophoretic mobility shift assay. It is filed as cell-based.
Experiment [9] addresses T1, Signal transducer and activator of transcription 1-alpha/beta (Homo sapiens). Description: Inhibition of STAT1 in human […] cells assessed as suppression of INFgamma-induced SOCS-1 expression at 25 to 40 uM by Northern blotting technique. It is filed as cell-based.

Structures are written as SMILES. Active and inactive are the calls of the source. The rule behind the calls is not given here.

One may read the Kd as the concentration at which binding is half-saturated. The low end stands for higher affinity, the high end for lower affinity. In the case of `CC(C)=CCC/C(C)=C/C[C@@]12C[C@H](CC=C(C)C)C(C)(C)[C@@](CC=C(C)C)(C(=O)C(C(=O)c3ccc(O)c(O)c3)=C1O)C2=O`, the inhibition entry in experiment [1] is “Active”. Besides, the inhibition entry (in the experiment with INS-1E; in [2]; in the experiment on MDA-MB-231 [5]) was “inactive” each time. For the same molecule, the inhibition result in experiment [3] was “Dose-dependent effect”. Also, in [4], the Kd was found to be 4.67 µM.

`O=C(O[C@@H]1Cc2c(O)cc(O)cc2O[C@@H]1c1cc(O)c(O)c(O)c1)c1cc(O)c(O)c(O)c1` [EPIGALOCATECHIN GALLATE] came in with a Kd in [4] of 0.7 µM.

With `C=C(C)[C@@H](CC=C(C)C)C[C@@]12C[C@@H](CC=C(C)C)C(C)(C)[C@@](CC=C(C)C)(C(=O)C(C(=O)c3ccc(O)c(O)c3)=C1O)C2=O` [GARCINOL], the inhibition entry (with INS-1E; in [6]; in experiment [2]; in the experiment on MDA-MB-231 [5]) was “Active” in each case. The inhibition result (in experiment [3]; in the experiment on MDA-MB-231 [7]) was “Dose-dependent effect” each time. This molecule came in with a Kd in experiment [4] of 16.9 µM.

For the molecule `CC(C)=CCC[C@@]1(C)[C@H](CC=C(C)C)C[C@]2(CC=C(C)C)C(=O)[C@@]1(CC=C(C)C)C(=O)C(C(=O)c1ccc(O)c(O)c1)=C2O` [GUTTIFERONE K], the inhibition entry in experiment [1], in experiment [2], in experiment [8] and in [9] was “Active” throughout. Also, the inhibition result in [3] is “Dose-dependent effect”. The molecule further yielded a Kd in experiment [4] of 20.6 µM.
